ChEMBL document CHEMBL1857833, “Screening and optimization of specific chemical series against human African Trypanosomiasis (HAT)”
Values after ≈ are worked out from the molar mass of the structure shown. Values joined by “and” are separate entries in the source; they are usually repeats but may differ in a detail not shown here. Equal entries are not always repeated.

Assays:
[1] = DNDI: Cytotoxicity against L929 mouse fibroblasts, 72 hour.; format: toxicity, cell-based; details: mouse, L929 mouse fibroblasts
[2] = test system: Trypanosoma brucei; experiment: DNDI: Inhibition of Human African Trypanosomiasis, SBRI 427, in vitro; format: functional, organism-based
[3] = DNDI: Lipophilicity measured in Chromatographic hydrophobicity index (CHI) assay, pH 7.4; format: physicochemical; details: buffer
[4] = DNDI: Solubility in phosphate buffered saline at pH7.4 measured by nephelometry at room temperature (NEPH-RT); format: physicochemical; details: pH 7.4
[5] = mouse, microsomes, 1 µM
Description: DNDI: in vitro intrinsic clearance in mouse liver microsomes at a concentration of 1uM

[6] = in vitro; details: mouse, liver microsomes, t (1 / 2)
Description: DNDI: half life in mouse liver microsomes at a concentration of 1uM

[7] = DNDI: Cytotoxicity against L929 mouse fibroblasts, CYTO-SP, 24 hour; format: toxicity, cell-based; details: mouse, L929 mouse fibroblasts
[8] = test system: Trypanosoma brucei; experiment: DNDI: Inhibition of Human African Trypanosomiasis, Cross 22, in vitro; format: functional, organism-based
[9] = test system: Trypanosoma cruzi; experiment: DNDI: Inhibition of Chagas Disease parasite Trypanosoma cruzi (Tulahuen LacZ, Clone C4), in vitro.; format: functional, organism-based
[10] = DNDI: Cytotoxicity against L-6 rat myoblasts from skeletal muscle cells; format: toxicity, cell-based, L6; details: L-6 rat skeletal muscle myoblasts
[11] = test system: Trypanosoma brucei rhodesiense; experiment: DNDI: Inhibition of Human African Trypanosomiasis (HAT), STIB 900, in vitro; format: functional, organism-based
[12] = test system: Leishmania donovani; experiment: DNDI: Inhibition of formation of Leishmania donovani (strain MHOM/ET/67/L82) axenic amastigotes, in vitro.; format: functional, organism-based
[13] = test system: Plasmodium falciparum; experiment: DNDI: Inhibition of the malaria parasite Plasmodium falciparum, in vitro; format: functional, organism-based; details: K1
[14] = Trypanosoma brucei, SBRI 427, read-out: IC50

SMILES	IC50 [2, 14] [µg/mL]	chromatographic logD [3]	solubility kinetic [4] [µM]	CLint in vitro [5] [µL/min/mg]	half-life at 1 µM [6] [h]	IC50 [8] [µg/mL]	IC50 [2]	IC50 [9] [µg/mL]	IC50 [11] [µg/mL]	IC50 [12] [µg/mL]	IC50 [13] [µg/mL]	IC50 at 72 h [1] [µg/mL]	IC50 at 24 h [7] [µg/mL]	IC50 [10] [µg/mL]
COc1ccc(CNC(CC(C)C)c2nc(Cc3ccccc3)c(N3CCOCC3)o2)cc1 (stereo not given)	2.23 (≈ 4.96 µM)	> 5.2	25 (≈ 11.2 µg/mL)	463	0.0333							> 10		
Clc1ccc(-c2nc(CNC3CCCCCC3)co2)cc1	1.27 (≈ 4.17 µM)					1.45 (≈ 4.76 µM)	1.61 µg/mL and 1.55 µg/mL					3.43 (≈ 11.3 µM)	26.6 (≈ 87.3 µM)	
CC1CCC(N/C(=N\O)c2cccnc2Oc2ccccc2Cl)CC1 (stereo not given)								4.72 (≈ 13.1 µM)	20.9 (≈ 58.1 µM)	6.18 (≈ 17.2 µM)	4.4 (≈ 12.2 µM)	> 10	> 50	50.2 (≈ 139 µM)
CC(C)(C)c1ccc(-c2nc(CNC3[C@H]4C[C@@H]5C[C@@H](C[C@H]3C5)C4)co2)cc1 (stereo not given in full)				14	0.983	0.83 (≈ 2.28 µM)	0.87 µg/mL and 0.51 µg/mL and 1.1 µg/mL					13 (≈ 35.8 µM)	> 50	
N=C(NC1CCCCC1)c1ccccc1-c1ccccc1	> 5	2.87	> 200										> 50	
Clc1ccc(-c2nc(CNC3[C@H]4C[C@@H]5C[C@@H](C[C@H]3C5)C4)co2)cc1 (stereo not given in full)	1.8 (≈ 5.25 µM)					2.29 (≈ 6.68 µM)	2.01 µg/mL and 2.82 µg/mL					6.73 (≈ 19.6 µM)	> 50	
CC1CC(NCc2coc(-c3ccc(Cl)cc3)n2)CC(C)(C)C1 (stereo not given)	1.18 (≈ 3.54 µM)					0.85 (≈ 2.55 µM)	0.86 µg/mL and 1.52 µg/mL					< 3.13	> 50	
c1ccc(-c2ccc(-c3nc(CNC4[C@H]5C[C@@H]6C[C@@H](C[C@H]4C6)C5)co3)cc2)cc1 (stereo not given in full)	1.18 (≈ 3.07 µM)					0.92 (≈ 2.39 µM)	0.7 µg/mL and 0.85 µg/mL					9.8 (≈ 25.5 µM)	> 50	
C[C@H]1C(NCc2coc(-c3ccc(Cl)cc3)n2)C[C@@H]2C[C@H]1C2(C)C (stereo not given in full)	1.06 (≈ 3.07 µM)					0.9 (≈ 2.61 µM)	0.71 µg/mL and 0.8 µg/mL					< 3.13	> 50	
CC1CC(NCc2coc(-c3ccc(Br)cc3)n2)CC(C)(C)C1 (stereo not given)						0.87 (≈ 2.31 µM)	0.54 µg/mL and 0.97 µg/mL and 1.17 µg/mL					< 3.13	> 50	
O/N=C(\NC1CCCCC1)C1CCCCC1	> 5	4.41	> 200										> 50	

The next lines start with results.

IC50 [2, 14] [µg/mL]	chromatographic logD [3]	solubility kinetic [4] [µM]	CLint in vitro [5] [µL/min/mg]	half-life at 1 µM [6] [h]	IC50 [8] [µg/mL]	IC50 [2]	IC50 [9] [µg/mL]	IC50 [11] [µg/mL]	IC50 [12] [µg/mL]	IC50 [13] [µg/mL]	SMILES	IC50 at 72 h [1] [µg/mL]	IC50 at 24 h [7] [µg/mL]	IC50 [10] [µg/mL]
4.72 (≈ 17.3 µM)							14.6 (≈ 53.6 µM)	0.823 (≈ 3.02 µM)	29.5 (≈ 108 µM)	1.21 (≈ 4.44 µM)	CCCCCC(C)NCc1coc(-c2ccccc2)n1 (stereo not given)	> 10	32 (≈ 117 µM)	14.3 (≈ 52.4 µM)
0.31 (≈ 0.867 µM)	4.64	2 (≈ 0.715 µg/mL)	12	1.22							CCCCOc1ccc(-c2nc(CNCCC3CCCN3C)co2)cc1 (stereo not given)	2.9 (≈ 8.11 µM)		
					3.56 (≈ 10.2 µM)	3.22 µg/mL and 1.69 µg/mL and 3.92 µg/mL					Brc1ccc(-c2nc(CNC3CCCCCC3)co2)cc1	15.7 (≈ 44.9 µM)	> 50	
					0.58 (≈ 1.52 µM)	0.61 µg/mL and 0.72 µg/mL and 0.29 µg/mL					CCCCOc1ccc(-c2nc(CN[C@@H]3C[C@@H]4C[C@H]([C@H]3C)C4(C)C)co2)cc1	< 3.13	8.05 (≈ 21 µM)	
0.16 (≈ 0.416 µM)	6.02	2 (≈ 0.769 µg/mL)	8	1.78							CCCCCOc1ccc(-c2nc(CNC3CC(C)CC(C)(C)C3)co2)cc1 (stereo not given)	< 3.13	> 50	
> 5					> 5						CC(C)(C)c1ccc(-c2nc(CNC[C@@H]3CC[C@H]4C[C@@H]3C4(C)C)co2)cc1	> 50	> 50	
0.14 (≈ 0.377 µM)	5.2	< 1	11	1.27							CCCCCOc1ccc(-c2nc(CNCCC3CCCN3C)co2)cc1 (stereo not given)	1.21 (≈ 3.26 µM)		
0.36 (≈ 0.946 µM)					0.34 (≈ 0.893 µM)	0.37 µg/mL and 0.29 µg/mL					CCCCOc1ccc(-c2nc(CNC3[C@H]4C[C@@H]5C[C@@H](C[C@H]3C5)C4)co2)cc1 (stereo not given in full)	< 3.13	15.9 (≈ 41.8 µM)	
